± gives the standard deviation of the averaged measurements.
Columns and labels:
ETOPOSIDE = compound: COc1cc([C@@H]2c3cc4c(cc3[C@@H](O[C@@H]3O[C@@H]5CO[C@@H](C)O[C@H]5[C@H](O)[C@H]3O)[C@H]3COC(=O)[C@H]23)OCO4)cc(OC)c1O [ETOPOSIDE]; experiment: area under dose-response curve of surviving fraction (unscaled, Aref=0) (surviving fraction x log10(nM)); higher = more resistant; settings: exposure time: 5 days; dose range 0.5-1000 nM
Method in brief: (§1)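 Tumour cell lines in 384-well plates were exposed for five days to eight inhibitor concentrations from 0.5 to 1000 nM. Viability was read by CellTiter-Glo luminescence, normalised to DMSO-only wells, in three screens per line. Dose-response survival curves were fitted to surviving fractions by 3-parameter logistic regression in the drc R package. Area under the curve is the unscaled activity area (Aref = 0) over log10 dose.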

GEMCITABINE = compound: Nc1ccn([C@@H]2O[C@H](CO)[C@@H](O)C2(F)F)c(=O)n1 [GEMCITABINE]; experiment: as above; settings: exposure time: 5 days; dose range 0.5-1000 nM
Method in brief: as §1

ERLOTINIB = compound: C#Cc1cccc(Nc2ncnc3cc(OCCOC)c(OCCOC)cc23)c1 [ERLOTINIB]; experiment: as above; settings: exposure time: 5 days; dose range 0.5-1000 nM
Method in brief: as §1

[1] = compound: Cc1nc(Nc2n[nH]c3c2CN(C(=O)N[C@H](CN(C)C)c2ccccc2)C3(C)C)c2sccc2n1; experiment: surviving fraction relative to DMSO-only wells; higher = less growth inhibition; settings: exposure time: 5 days
Method in brief: (§2)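 Viability values are CellTiter-Glo luminescence readings, given as surviving fraction against the median of DMSO-only wells. The readings were taken after 10 minutes at room temperature, following five days of continuous exposure to inhibitors at 0.5, 1, 5, 10, 50, 100, 500 and 1000 nM that began 24 hours after log-phase tumour cell lines were seeded at 250–500 cells per well in 384-well plates. Every line was screened three times and kept only if replicate Pearson r >0.7 and median Z' >0.3.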

PLX-4720 [2] = compound: T1, CCCS(=O)(=O)Nc1ccc(F)c(C(=O)c2c[nH]c3ncc(Cl)cc23)c1F [PLX-4720]; experiment: as above; settings: exposure time: 5 days
Method in brief: as §2

PLX-4720 [3] = compound: T1, PLX-4720; experiment: area under dose-response curve of surviving fraction (unscaled, Aref=0) (surviving fraction x log10(nM)); higher = more resistant; settings: exposure time: 5 days; dose range 0.5-1000 nM
Method in brief: as §1

Test System: C33A CERVIX
- area under dose-response curve (ETOPOSIDE): 2.61
- area under dose-response curve (GEMCITABINE): 1.15
- area under dose-response curve (ERLOTINIB): 3.19
- surviving fraction ([1]; 0.5 nM): 0.67 ± 0.035
- surviving fraction ([1]; 1 nM): 0.62 ± 0.016
- surviving fraction ([1]; 5 nM): 0.298 ± 0.049
- surviving fraction ([1]; 10 nM): 0.26 ± 0.024
- surviving fraction ([1]; 50 nM): 0.221 ± 0.011
- surviving fraction ([1]; 100 nM): 0.214 ± 0.024
- surviving fraction ([1]; 500 nM): 0.146 ± 0.0049
- surviving fraction ([1]; 1000 nM): 0.0663 ± 0.009
- surviving fraction (PLX-4720 [2]; 0.5 nM): 1.03 ± 0.18
- surviving fraction (PLX-4720 [2]; 1 nM): 0.994 ± 0.044
- surviving fraction (PLX-4720 [2]; 5 nM): 1.12 ± 0.14
- surviving fraction (PLX-4720 [2]; 10 nM): 1.13 ± 0.045
- surviving fraction (PLX-4720 [2]; 50 nM): 1.01 ± 0.17
- surviving fraction (PLX-4720 [2]; 100 nM): 1.05 ± 0.13
- surviving fraction (PLX-4720 [2]; 500 nM): 0.946 ± 0.1
- surviving fraction (PLX-4720 [2]; 1000 nM): 1.06 ± 0.13

Test System: CAL72 BONE
- area under dose-response curve (PLX-4720 [3]): 3.44
- area under dose-response curve (ETOPOSIDE): 3.1
- area under dose-response curve (GEMCITABINE): 1.4
- area under dose-response curve (ERLOTINIB): 3.5
- surviving fraction ([1]; 0.5 nM): 1.04 ± 0.066
- surviving fraction ([1]; 1 nM): 0.993 ± 0.032
- surviving fraction ([1]; 5 nM): 0.691 ± 0.061
- surviving fraction ([1]; 10 nM): 0.556 ± 0.058
- surviving fraction ([1]; 50 nM): 0.435 ± 0.025
- surviving fraction ([1]; 100 nM): 0.399 ± 0.011
- surviving fraction ([1]; 500 nM): 0.194 ± 0.023
- surviving fraction ([1]; 1000 nM): 0.0947 ± 0.0081
- surviving fraction (PLX-4720 [2]; 0.5 nM): 0.969 ± 0.041
- surviving fraction (PLX-4720 [2]; 1 nM): 1.02 ± 0.036
- surviving fraction (PLX-4720 [2]; 5 nM): 0.964 ± 0.015
- surviving fraction (PLX-4720 [2]; 10 nM): 1.03 ± 0.035
- surviving fraction (PLX-4720 [2]; 50 nM): 1.076 ± 0.006
- surviving fraction (PLX-4720 [2]; 100 nM): 1.104 ± 0.011
- surviving fraction (PLX-4720 [2]; 500 nM): 1.09 ± 0.04
- surviving fraction (PLX-4720 [2]; 1000 nM): 1.08 ± 0.036

Test System: G292 BONE
- area under dose-response curve (PLX-4720 [3]): 3.19
- area under dose-response curve (ETOPOSIDE): 2.76
- area under dose-response curve (GEMCITABINE): 1.39
- area under dose-response curve (ERLOTINIB): 3.44
- surviving fraction ([1]; 0.5 nM): 0.782 ± 0.028
- surviving fraction ([1]; 1 nM): 0.642 ± 0.029
- surviving fraction ([1]; 5 nM): 0.42 ± 0.0074
- surviving fraction ([1]; 10 nM): 0.376 ± 0.004
- surviving fraction ([1]; 50 nM): 0.324 ± 0.014
- surviving fraction ([1]; 100 nM): 0.287 ± 0.012
- surviving fraction ([1]; 500 nM): 0.166 ± 0.0052
- surviving fraction ([1]; 1000 nM): 0.0753 ± 0.0032
- surviving fraction (PLX-4720 [2]; 0.5 nM): 0.893 ± 0.022
- surviving fraction (PLX-4720 [2]; 1 nM): 0.977 ± 0.042
- surviving fraction (PLX-4720 [2]; 5 nM): 0.973 ± 0.039
- surviving fraction (PLX-4720 [2]; 10 nM): 0.972 ± 0.043
- surviving fraction (PLX-4720 [2]; 50 nM): 0.956 ± 0.024
- surviving fraction (PLX-4720 [2]; 100 nM): 1.0012 ± 0.00029
- surviving fraction (PLX-4720 [2]; 500 nM): 0.979 ± 0.026
- surviving fraction (PLX-4720 [2]; 1000 nM): 0.973 ± 0.085

Test System: HCC1395 BREAST
- area under dose-response curve (PLX-4720 [3]): 2.7
- area under dose-response curve (ETOPOSIDE): 3.25
- area under dose-response curve (ERLOTINIB): 3.97
- surviving fraction ([1]; 0.5 nM): 0.927 ± 0.18
- surviving fraction ([1]; 1 nM): 0.984 ± 0.06
- surviving fraction ([1]; 5 nM): 1.06 ± 0.013
- surviving fraction ([1]; 10 nM): 1.11 ± 0.13
- surviving fraction ([1]; 50 nM): 0.964 ± 0.14
- surviving fraction ([1]; 100 nM): 1.16 ± 0.26
- surviving fraction ([1]; 500 nM): 0.964 ± 0.15
- surviving fraction ([1]; 1000 nM): 0.961 ± 0.16
- surviving fraction (PLX-4720 [2]; 0.5 nM): 0.827 ± 0.0092
- surviving fraction (PLX-4720 [2]; 1 nM): 0.878 ± 0.15
- surviving fraction (PLX-4720 [2]; 5 nM): 0.82 ± 0.15
- surviving fraction (PLX-4720 [2]; 10 nM): 0.787 ± 0.06
- surviving fraction (PLX-4720 [2]; 50 nM): 0.788 ± 0.17
- surviving fraction (PLX-4720 [2]; 100 nM): 0.888 ± 0.042
- surviving fraction (PLX-4720 [2]; 500 nM): 0.824 ± 0.08
- surviving fraction (PLX-4720 [2]; 1000 nM): 0.927 ± 0.098

Test System: HUO3N1 BONE
- area under dose-response curve (PLX-4720 [3]): 3.12
- area under dose-response curve (ETOPOSIDE): 2.97
- area under dose-response curve (GEMCITABINE): 1.51
- area under dose-response curve (ERLOTINIB): 3.54
- surviving fraction ([1]; 0.5 nM): 0.971 ± 0.018
- surviving fraction ([1]; 1 nM): 0.942 ± 0.034
- surviving fraction ([1]; 5 nM): 0.853 ± 0.011
- surviving fraction ([1]; 10 nM): 0.781 ± 0.024
- surviving fraction ([1]; 50 nM): 0.683 ± 0.015
- surviving fraction ([1]; 100 nM): 0.625 ± 0.038
- surviving fraction ([1]; 500 nM): 0.462 ± 0.029
- surviving fraction ([1]; 1000 nM): 0.407 ± 0.0059
- surviving fraction (PLX-4720 [2]; 0.5 nM): 0.849 ± 0.014
- surviving fraction (PLX-4720 [2]; 1 nM): 0.886 ± 0.035
- surviving fraction (PLX-4720 [2]; 5 nM): 0.92 ± 0.055
- surviving fraction (PLX-4720 [2]; 10 nM): 0.913 ± 0.042
- surviving fraction (PLX-4720 [2]; 50 nM): 0.989 ± 0.028
- surviving fraction (PLX-4720 [2]; 100 nM): 1.02 ± 0.059
- surviving fraction (PLX-4720 [2]; 500 nM): 1.01 ± 0.063
- surviving fraction (PLX-4720 [2]; 1000 nM): 1.01 ± 0.067

Test System: LNCAP PROSTATE
- area under dose-response curve (PLX-4720 [3]): 3.17
- area under dose-response curve (ETOPOSIDE): 2.68
- area under dose-response curve (GEMCITABINE): 1.22
- area under dose-response curve (ERLOTINIB): 3.2
- surviving fraction ([1]; 0.5 nM): 0.773 ± 0.021
- surviving fraction ([1]; 1 nM): 0.632 ± 0.054
- surviving fraction ([1]; 5 nM): 0.215 ± 0.0067
- surviving fraction ([1]; 10 nM): 0.196 ± 0.019
- surviving fraction ([1]; 50 nM): 0.098 ± 0.017
- surviving fraction ([1]; 100 nM): 0.097 ± 0.012
- surviving fraction ([1]; 500 nM): 0.0357 ± 0.0032
- surviving fraction ([1]; 1000 nM): 0.0227 ± 0.0029
- surviving fraction (PLX-4720 [2]; 0.5 nM): 1.17 ± 0.08
- surviving fraction (PLX-4720 [2]; 1 nM): 1.08 ± 0.051
- surviving fraction (PLX-4720 [2]; 5 nM): 1.15 ± 0.097
- surviving fraction (PLX-4720 [2]; 10 nM): 1.12 ± 0.035
- surviving fraction (PLX-4720 [2]; 50 nM): 0.892 ± 0.11
- surviving fraction (PLX-4720 [2]; 100 nM): 0.846 ± 0.011
- surviving fraction (PLX-4720 [2]; 500 nM): 0.898 ± 0.09
- surviving fraction (PLX-4720 [2]; 1000 nM): 1.03 ± 0.12

Test System: SCC003 HEADNECK
- area under dose-response curve (PLX-4720 [3]): 2.97
- area under dose-response curve (GEMCITABINE): 1.57
- area under dose-response curve (ERLOTINIB): 3.14
- surviving fraction ([1]; 0.5 nM): 0.993 ± 0.094
- surviving fraction ([1]; 1 nM): 1.05 ± 0.094
- surviving fraction ([1]; 5 nM): 0.61 ± 0.043
- surviving fraction ([1]; 10 nM): 0.418 ± 0.022
- surviving fraction ([1]; 50 nM): 0.278 ± 0.029
- surviving fraction ([1]; 100 nM): 0.275 ± 0.028
- surviving fraction ([1]; 500 nM): 0.227 ± 0.021
- surviving fraction ([1]; 1000 nM): 0.183 ± 0.012
- surviving fraction (PLX-4720 [2]; 0.5 nM): 0.76 ± 0.094
- surviving fraction (PLX-4720 [2]; 1 nM): 0.825 ± 0.065
- surviving fraction (PLX-4720 [2]; 5 nM): 0.829 ± 0.14
- surviving fraction (PLX-4720 [2]; 10 nM): 0.81 ± 0.11
- surviving fraction (PLX-4720 [2]; 50 nM): 0.983 ± 0.06
- surviving fraction (PLX-4720 [2]; 100 nM): 1.02 ± 0.034
- surviving fraction (PLX-4720 [2]; 500 nM): 1.01 ± 0.035
- surviving fraction (PLX-4720 [2]; 1000 nM): 1.02 ± 0.17

Reference: the supplement of paper PMC6045584
